{"source": "patent US8834843B2", "about": "“Imaging method” (GE Healthcare Limited, priority 2007, dated 2014)", "key": {"[1]": {"assay": "Biodistribution in BDL rats with and without excess cold compound", "type": "in vivo", "conditions": "male, Sprague Dawley, rat, iv, total radioactivity, BDL rats, 15 days post-op, 1 hour post-injection; for dose excreted at 1 h: bile and urine", "description": "(§1) On the appropriate day post surgery BDL and sham animals were removed and put under isoflurane anaesthesia, then each animal was injected with 0.3 ml intravenously (i.v.) via tail vein (˜3MBq). At the appropriate time point post-injection of the test item, each animal was re-anaesthetised with isoflurane, sacrificed by cervical dislocation weighed and the weight recorded via a barcode scanning system. Each animal was dissected and the following organs and tissues were removed and counted using BASIL counter protocol 40 or manual counting:\n(§2) The recorded activity in a whole organ (e.g., liver) was corrected for background radioactivity and for radioactive decay and the biodistribution of radioactivity calculated by reference to Formula I:\n(§3) [formula] where: • A=counts per second measured in organ • B=total counts per second measured in all samples (excluding the injection site)\n(§4) The percentage of injected radioactivity in the weighed tissue samples (e.g., blood) was calculated to give % i.d. in the entire tissue by reference to Formula 2:\n(§5) [formula] where: • Zs=counts per second in sample • Ws=weight of sample in grams • Wb=weight of animal in grams immediately after sacrifice • B=total counts per second measured in all the samples (excluding the injection site) • F=tissue specific factor representing the mass of the tissue as a proportion of the total body weight of the animal\n(§6) The biodistribution of radioactivity was investigated in 15 days post-operatively in BDL and sham-operated male Sprague Dawley rats (procedures described in Example 3) 1 hour following of intravenous injection via tail vein of ˜3 MBq of Compound 8, both before and after addition of 1:100 and 1:10,000 fold excess of cold Compound 8. At the appropriate time point post-injection of the test Item, each animal was re-anaesthetised with isoflurane, sacrificed by cervical dislocation and weighed. Each animal was dissected and organs and tissues (see Tables 5 and 6 below) were removed and counted using BASIL counter protocol 40 or manual counting."}, "BDL fibrogenic liver": {"tested_on": "BDL fibrogenic liver", "assay": "Biodistribution in BDL rats with and without excess cold compound", "type": "in vivo", "conditions": "rat, in vivo", "description": "as §1, §2, §3, §4, §5, §6"}, "[2]": {"tested_on": "fibrogenic livers in BDL model", "assay": "Liver uptake in BDL vs sham rats at 15 days post-op, vs negative control", "type": "in vivo, rat", "conditions": "one hour post-injection", "description": "as §1\nThe BDL and sham animal models were set up as described in Example 3. At 15 days post-operatively, one of Compound 3, Compound 8 or a negative control was administered to each animal and liver uptake assessed as described in Example 3."}, "EA-Hy926 membranes": {"target": "EA-Hy926 membranes", "assay": "Competitive binding assay with 125I-echistatin on EA-Hy926 membranes", "parameters": "species or system human", "conditions": "cold compound vs 125I-echistatin, 1 hour at 37° C.; read-out: Ki in the EA-Hy926 membrane assay", "description": "The inhibition constant of Compound 6 was measured using a previously-described membrane binding assay (Indrevoll et al, Bioorg & Med Chem Lett, 2006, 16, 6190-6193).\nIn brief, membranes from the human endothelial adenocarcinoma cell line EA-Hy926 were prepared and the Kd calculated for the purified membrane fraction. A competitive binding assay was then established to measure inhibition constants for cold Compound 6. ^125I-echistatin was used as the labelled ligand and cold echistatin as a reference standard.\nA total of sixteen dilutions of cold test compound (either cold echistatin or cold Compound 6) were prepared and mixed with a combination of ^125I-echistatin and membrane prior to incubation for 1 hour at 37° C. Following several washes, the bound material was harvested on a filter using a Skatron micro harvester. The filterspots were finally excised and counted in a Packard γ-counter.\nThe inhibition constants for Compound 3 and Compound 8 were determined using the method described in Example 1. FIG. 3 illustrates binding of ^125I-echistatin versus cold Compound 3, Compound 8 and echistatin on EA-Hy926 membranes."}}, "note": "Entries after “also recorded” stand apart in the source; their conditions may differ. Like-named read-outs stand apart in the source and are kept apart here. Numbered stars: 1 amine (or outer) side, 2 acyl side, 3 side chain; on linkers, the order of the positions; unused ones are H or OH. Bridge positions count the residues as written; N and C are the ends. Side chains are listed from the residue outwards. Peptide text beside a SMILES is read from it. * marks the point of attachment. X1 = C/C(=N\\O)C(C)(C)NCCC(CCNC(C)(C)/C(C)=N/O)CCN*; Glutaryl = O=C(CCCC(=O)[*:2])[*:1]; X2 = NC(=O)COCC(=O)NCCOCCOCCOCCN*", "data": [{"smiles": "C/C(=N\\O)C(C)(C)NCCC(CCNC(=O)CCCC(=O)NCCCC[C@@H]1NC(=O)CSC[C@@H](C(=O)NCCOCCOCCOCCNC(=O)COCC(N)=O)NC(=O)[C@H](Cc2ccccc2)NC(=O)[C@@H]2CSSC[C@H](NC1=O)C(=O)N[C@@H](CCCNC(=N)N)C(=O)NCC(=O)N[C@@H](CC(=O)O)C(=O)N2)CCNC(C)(C)/C(C)=N/O", "note": "(stereo partly drawn) [Compound 8] ({CH2CO}-K([Glutaryl-X1])CRGDCFC-X2; disulfide 2-6; thioether N-8)", "values": [{"measurement": "dose excreted at 1 h", "setting": "[1]; 3 MBq, 10K-fold excess cold Compound 8", "value": 41.6, "unit": "%"}, {"measurement": "dose excreted at 1 h", "setting": "[1]; 3 MBq, 100-fold excess cold Compound 8", "value": 38.3, "unit": "%"}, {"measurement": "dose excreted at 1 h", "setting": "[1]; 3 MBq, no excess", "value": 41, "unit": "%"}, {"measurement": "tissue uptake dose at 1 h", "setting": "[1]; blood, 10K-fold excess cold Compound 8, read-out: Activity in Blood, Mean", "value": 1.6, "unit": "%ID"}, {"measurement": "tissue uptake dose at 1 h", "setting": "[1]; blood, 100-fold excess cold Compound 8, read-out: Activity in Blood, Mean", "value": 1.61, "unit": "%ID"}, {"measurement": "tissue uptake dose at 1 h", "setting": "[1]; blood, no excess, read-out: Activity in Blood, Mean", "value": 1.47, "unit": "%ID"}, {"measurement": "tissue uptake dose at 1 h", "setting": "[1]; bone, 10K-fold excess cold Compound 8, read-out: Activity in Bone, Mean", "value": 3.18, "unit": "%ID"}, {"measurement": "tissue uptake dose at 1 h", "setting": "[1]; bone, 100-fold excess cold Compound 8, read-out: Activity in Bone, Mean", "value": 2.97, "unit": "%ID"}, {"measurement": "tissue uptake dose at 1 h", "setting": "[1]; bone, no excess, read-out: Activity in Bone, Mean", "value": 3.02, "unit": "%ID"}, {"measurement": "tissue uptake dose at 1 h", "setting": "[1]; carcass, 10K-fold excess cold Compound 8, read-out: Activity in Carcass, Mean", "value": 6.14, "unit": "%ID"}, {"measurement": "tissue uptake dose at 1 h", "setting": "[1]; carcass, 100-fold excess cold Compound 8, read-out: Activity in Carcass, Mean", "value": 6.47, "unit": "%ID"}, {"measurement": "tissue uptake dose at 1 h", "setting": "[1]; carcass, no excess, read-out: Activity in Carcass, Mean", "value": 4.36, "unit": "%ID"}, {"measurement": "tissue uptake dose at 1 h", "setting": "[1]; heart, 10K-fold excess cold Compound 8, read-out: Activity in Heart, Mean", "value": 0.14, "unit": "%ID"}, {"measurement": "tissue uptake dose at 1 h", "setting": "[1]; heart, 100-fold excess cold Compound 8, read-out: Activity in Heart, Mean", "value": 0.13, "unit": "%ID"}, {"measurement": "tissue uptake dose at 1 h", "setting": "[1]; heart, no excess, read-out: Activity in Heart, Mean", "value": 0.13, "unit": "%ID"}, {"measurement": "tissue uptake dose at 1 h", "setting": "[1]; injection site, 10K-fold excess cold Compound 8, read-out: Activity in Injection Site, Mean", "value": 1.68, "unit": "%ID"}, {"measurement": "tissue uptake dose at 1 h", "setting": "[1]; injection site, 100-fold excess cold Compound 8, read-out: Activity in Injection Site, Mean", "value": 1.75, "unit": "%ID"}, {"measurement": "tissue uptake dose at 1 h", "setting": "[1]; injection site, no excess, read-out: Activity in Injection Site, Mean", "value": 1.32, "unit": "%ID"}, {"measurement": "tissue uptake dose at 1 h", "setting": "[1]; kidneys, 3 MBq, 10K-fold excess cold Compound 8, read-out: Activity in Kidneys, Mean", "value": 3.61, "unit": "%ID"}, {"measurement": "tissue uptake dose at 1 h", "setting": "[1]; kidneys, 3 MBq, 100-fold excess cold Compound 8, read-out: Activity in Kidneys, Mean", "value": 4.2, "unit": "%ID"}, {"measurement": "tissue uptake dose at 1 h", "setting": "[1]; kidneys, no excess, read-out: Activity in Kidneys, Mean", "value": 3.78, "unit": "%ID"}, {"measurement": "tissue uptake dose at 1 h", "setting": "[1]; liver, 10K-fold excess cold Compound 8, read-out: Activity in Liver, Mean", "value": 9.81, "unit": "%ID"}, {"measurement": "tissue uptake dose at 1 h", "setting": "[1]; liver, 100-fold excess cold Compound 8, read-out: Activity in Liver, Mean", "value": 16.1, "unit": "%ID"}, {"measurement": "tissue uptake dose at 1 h", "setting": "[1]; liver, no excess, read-out: Activity in Liver, Mean", "value": 12.7, "unit": "%ID"}, {"measurement": "tissue uptake dose at 1 h", "setting": "[1]; lung, 10K-fold excess cold Compound 8, read-out: Activity in Lung, Mean", "value": 0.5, "unit": "%ID"}, {"measurement": "tissue uptake dose at 1 h", "setting": "[1]; lung, 100-fold excess cold Compound 8, read-out: Activity in Lung, Mean", "value": 0.5, "unit": "%ID"}, {"measurement": "tissue uptake dose at 1 h", "setting": "[1]; lung, no excess, read-out: Activity in Lung, Mean", "value": 0.43, "unit": "%ID"}, {"measurement": "tissue uptake dose at 1 h", "setting": "[1]; muscle, 10K-fold excess cold Compound 8, read-out: Activity in Muscle, Mean", "value": 9.61, "unit": "%ID"}, {"measurement": "tissue uptake dose at 1 h", "setting": "[1]; muscle, 100-fold excess cold Compound 8, read-out: Activity in Muscle, Mean", "value": 8.76, "unit": "%ID"}, {"measurement": "tissue uptake dose at 1 h", "setting": "[1]; muscle, no excess, read-out: Activity in Muscle, Mean", "value": 10.8, "unit": "%ID"}, {"measurement": "tissue uptake dose at 1 h", "setting": "[1]; skin, 10K-fold excess cold Compound 8, read-out: Activity in Skin, Mean", "value": 13, "unit": "%ID"}, {"measurement": "tissue uptake dose at 1 h", "setting": "[1]; skin, 100-fold excess cold Compound 8, read-out: Activity in Skin, Mean", "value": 12, "unit": "%ID"}, {"measurement": "tissue uptake dose at 1 h", "setting": "[1]; skin, no excess, read-out: Activity in Skin, Mean", "value": 12.6, "unit": "%ID"}, {"measurement": "tissue uptake dose at 1 h", "setting": "[1]; small and large intestine, 10K-fold excess cold Compound 8, read-out: Activity in Small & Large Intestine, Mean", "value": 8.58, "unit": "%ID"}, {"measurement": "tissue uptake dose at 1 h", "setting": "[1]; small and large intestine, 100-fold excess cold Compound 8, read-out: Activity in Small & Large Intestine, Mean", "value": 7.41, "unit": "%ID"}, {"measurement": "tissue uptake dose at 1 h", "setting": "[1]; small and large intestine, no excess, read-out: Activity in Small & Large Intestine, Mean", "value": 8.32, "unit": "%ID"}, {"measurement": "tissue uptake dose at 1 h", "setting": "[1]; spleen, 10K-fold excess cold Compound 8, read-out: Activity in Spleen, Mean", "value": 0.52, "unit": "%ID"}, {"measurement": "tissue uptake dose at 1 h", "setting": "[1]; spleen, 100-fold excess cold Compound 8, read-out: Activity in Spleen, Mean", "value": 0.57, "unit": "%ID"}, {"measurement": "tissue uptake dose at 1 h", "setting": "[1]; spleen, no excess, read-out: Activity in Spleen, Mean", "value": 0.51, "unit": "%ID"}, {"measurement": "tissue uptake dose at 1 h", "setting": "[1]; stomach, 10K-fold excess cold Compound 8, read-out: Activity in Stomach, Mean", "value": 1.69, "unit": "%ID"}, {"measurement": "tissue uptake dose at 1 h", "setting": "[1]; stomach, 100-fold excess cold Compound 8, read-out: Activity in Stomach, Mean", "value": 0.96, "unit": "%ID"}, {"measurement": "tissue uptake dose at 1 h", "setting": "[1]; stomach, no excess, read-out: Activity in Stomach, Mean", "value": 0.89, "unit": "%ID"}, {"measurement": "tissue uptake dose at 1 h", "setting": "[1]; thyroid, 10K-fold excess cold Compound 8, read-out: Activity in Thyroid, Mean", "value": 0.06, "unit": "%ID"}, {"measurement": "tissue uptake dose at 1 h", "setting": "[1]; thyroid, 100-fold excess cold Compound 8, read-out: Activity in Thyroid, Mean", "value": 0.04, "unit": "%ID"}, {"measurement": "tissue uptake dose at 1 h", "setting": "[1]; thyroid, no excess, read-out: Activity in Thyroid, Mean", "value": 0.04, "unit": "%ID"}, {"measurement": "Binding to BDL fibrogenic liver with excess cold compound (in words)", "setting": "BDL fibrogenic liver", "value": "Specifically Inhibited by Cold Compound 8"}, {"measurement": "Liver retention/uptake in BDL compared to sham animals (in words)", "setting": "[2]", "value": "significantly higher liver uptake; also recorded: significantly retained"}, {"measurement": "Ki", "setting": "EA-Hy926 membranes", "value": 6, "unit": "nM"}]}]}
